Test results reported in publication PMC11666850, “Development and evaluation of deuterated [^18F]JHU94620 isotopologues for the non-invasive assessment of the cannabinoid type 2 receptor in brain” (EJNMMI Radiopharmacy and Chemistry, 2024).
Read-outs that look alike come from different tables or passages of the source.

Legend:
CB2R [1] = settings: cited from earlier work
CB1R = settings: cited from earlier work
human CB2R (hCB2R) = molecular target: T1, human CB2R (hCB2R) (Homo sapiens, UniProt P34972); test: Homologous competition binding, CHO(hCB2R) cell membranes
T1 construct: expressed in transfected cells; host or cells: CHO(hCB2R) cells, obtained from Paul L. Prather, University of Arkansas for Medical Sciences
T1 sequence (P34972 whole entry): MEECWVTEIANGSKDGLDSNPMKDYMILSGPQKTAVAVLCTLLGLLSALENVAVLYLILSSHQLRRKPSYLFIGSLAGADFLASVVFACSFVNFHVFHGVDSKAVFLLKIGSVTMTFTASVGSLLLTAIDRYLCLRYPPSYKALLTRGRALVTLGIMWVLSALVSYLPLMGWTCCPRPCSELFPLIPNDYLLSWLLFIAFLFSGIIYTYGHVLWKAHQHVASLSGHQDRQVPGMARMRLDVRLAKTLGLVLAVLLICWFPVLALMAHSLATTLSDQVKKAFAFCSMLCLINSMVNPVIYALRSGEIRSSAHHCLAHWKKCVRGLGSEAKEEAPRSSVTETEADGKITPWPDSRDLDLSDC
Procedure: For binding studies crude homogenates of CHO(hCB2R) cells (obtained from Paul L. Prather, Department of Pharmacology and Toxicology, College of Medicine, University of Arkansas for Medical Sciences, USA) were incubated with the reference compound (self-blocking) or the CB2R-specific partial agonist GW405833 (Tocris Bioscience, Bristol, UK) with indicated concentrations at room temperature for 90 min. The total volume of 1 mL of each sample consisted of 600 µL incubation buffer (50 mM Tris HCl pH7.4, 5 mM MgCl2, 1 mM EDTA and 1% Bovine Serum Albumin), 200 µL cell membrane homogenates, 100 µL competitor or binding buffer (total binding) and 100 µl of binding buffer with [^18F]JHU94620-d8 (about 100 kBq per vial, corresponding to 0.8 to 1.6 nM). Incubation was terminated by rapid filtration through a GF-B glass fibre filter, pre-treated with 0.5% PVP with 0.1% Tween 20 solution, using a 48-well cell harvester, washed six times with buffer and filter bound activity was subsequently measured in a γ-counter (1480 WIZARD, Perkin Elmer, Turku, Finland).
(§1) The KD values were calculated with GraphPad Prism according to the modified Cheng-Prusoff method for homologous competitive binding studies, where the KD = Ki = IC50—[radioligand] and the Bmax = specific binding / [radioligand] / ((KD + [radioligand])) (Motulsky and Neubig [2000]), assuming a total protein content of 8.2% (1.3 10^–4 µg protein per voxel) in the spleen (Zaia et al. [2000]) or by determining the protein concentration of the cell membrane lysates using a BCA assay (Thermo Scientific, Braunschweig, Germany). The fractional occupancy defined as occupied binding sites per total binding sites is used to describe the binding fraction specifically bound to CB2R compared to unspecific binding, where [L] is the concentration of the ligand at the start of incubation.

CB2R [2] = molecular target: T2, CB2R (Rattus norvegicus, UniProt Q9QZN9); test: Quantitative autoradiography, rat spleen cryosections; format: binding; settings: 100 nM CB2R PAM, rat spleen
T2 construct: from tissue; host or cells: rat spleen: cryosections in vitro, and spleen of living Wistar rats in PET
T2 sequence (Q9QZN9 1-360): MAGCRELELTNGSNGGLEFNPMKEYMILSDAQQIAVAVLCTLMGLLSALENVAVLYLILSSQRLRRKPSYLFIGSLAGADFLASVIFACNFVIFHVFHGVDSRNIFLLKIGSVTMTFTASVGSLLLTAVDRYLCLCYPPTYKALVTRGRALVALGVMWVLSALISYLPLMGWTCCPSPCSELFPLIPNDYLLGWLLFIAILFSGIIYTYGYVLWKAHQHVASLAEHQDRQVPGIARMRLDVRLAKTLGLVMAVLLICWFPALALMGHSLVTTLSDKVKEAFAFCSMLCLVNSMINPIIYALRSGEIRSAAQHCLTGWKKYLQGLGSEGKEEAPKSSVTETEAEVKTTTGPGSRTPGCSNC
Procedure: For quantitative autoradiography in different species, 10 µm cryosections from mouse, rat and piglet spleen were thawed, dried, and pre-incubated with incubation buffer for 10 min, dried under an airstream. Subsequently, the incubation buffer containing [^18F]JHU94620-d8 (59–137 GBq µmol^−1, 1.7–3.6 nM) was added alone or together with indicated concentrations of the reference compound. Additionally, to assess the non-specific binding of [^18F]JHU94620-d8 to cryosections GW405833 was added instead of the reference compound. After 90 min, cryosections were washed two times for 2 min with ice-cold 50 mM Tris HCl, pH7.4 and 10 s in ddH2O and subsequently dried under an airstream. For the calculation of the radioactivity concentration, 5 µl of five serial 1:2 dilutions of the incubation buffer with [^18F]JHU94620-d8 were air-dried on a microscopic slide. For binding studies in rat spleen cryosections by autoradiography with HLM-derived radiometabolites of [^18F]JHU94620-d8 obtained from the radiometabolite assay, the samples were added to the incubation buffer to a final activity concentration of 0.2 MBq mL^−1 and protocol was followed as described above. Subsequently, the slides were exposed to a phosphor imager plate. After scanning at high sensitivity and a 12.5 µm resolution with a CR35 Bio image plate scanner (Raytest Isotopenmessgeräte GmbH, Straubenhardt, Germany). The analyses of the autoradiographic images were performed with the AIDA 5.1 software (Elysia-Raytest, Angleur, Belgium) resulting in a resolution of 12.617 pixel × 12.616 pixel per µm^2 (1 voxel = 1592 µm^3 ≙ 1.59 10^–3 µg wet tissue) and inhibition curves were created with GraphPad Prism 9.5.1 (GraphPad Inc., La Jolla, CA).
as §1

CB2R [3] = molecular target: T2, CB2R; format: in vivo; settings: Wistar rats, i.v. pre-treatment 5 min prior tracer, between 2.5 and 20 min p.i., 1-way ANOVA p < 0.05
Procedure: The dynamic biodistribution of the radiotracer in the lower body of rats was assessed by small animal PET (Nanoscan, Mediso, Hungary) over 60 min with a subsequently T1-weighted MR. Anaesthetized (2% isoflurane, carrier gas mixture of 40% air and 60% O2) male Wistar rats (body weight: 205–308 g, age: 8–10 weeks, no gender-specific differences were taken into account) were kept during imaging on a heated animal bed to sustain body temperature and were pretreated with vehicle (DMSO:Kolliphore EL:0.9% saline, 1:2:7), JHU94620-d8 (1.5 mg kg^−1 bodyweight) or with GW405833 (5 mg kg^−1 bodyweight) 5 min prior tracer application ([^18F]JHU94620-d8: 7.7–28.2 MBq, 0.4 to 3.2 nmol kg^−1 bodyweight), whereby all injections were administered intravenously. For the evaluation of the hCB2R-specific binding of the radiotracer in the brain, female Wistar rats (n = 6, 253–269 g, age: 8 month) were used carrying stereotactically injected constructs of AAV2/7-CaMKII0.4-intron-hCB2R(D80N) in the right striatum and AAV2/7-CaMKII0.4-intron-3flag-eGFP in the control/contralateral striatum (Vandeputte et al. [2011]). 21–26 MBq corresponding to 0.2 to 2.0 nmol kg^−1 bodyweight radiotracer were injected, whereas in displacement studies 5 mg kg^−1 bodyweight GW405833 was administered 20 min after the radiotracer (each n = 3). The PET scans were performed six months after the stereotactic injections of the AAV2/7-constructs.
The acquisitions were performed in normal mode and a coincidence mode 1–5. For subsequent dynamic reconstructions list mode data were sorted into sinograms (12 × 10 s, 6 × 30 s, 5 × 60 s and 10 × 300 s). The frames were reconstructed by Ordered Subset Expectation Maximization applied to 3D (OSEM3D) sinograms corrected for decay and attenuation (4 iterations, 6 subsets and a voxel size of 0.4 mm^3) with the Nucline software v2.01 (Mediso, Budapest, Hungary). Analyses of reconstructed studies were performed with PMOD software (v4.205, PMOD Technologies LLC, Fällanden, Switzerland) and results are expressed in standardized uptake values (SUVs) or normalized to a reference region (SUVr).

hCB2R(D80N) = hCB2R(D80N) (Homo sapiens, UniProt P34972, D80N); test: Homologous displacement autoradiography, brain cryosections of rats with hCB2R(D80N) overexpression; format: binding; settings: hCB2R(D80N) region, 10 µm rat brain cryosections, homologous displacement, n = 3; read-out: KD
Chain of hCB2R(D80N) (P34972 whole entry D80N): as the sequence (P34972 whole entry) above, with D80N counted along it

CB2R [4] = molecular target: T2, CB2R; design: method as in Govaerts et al. [2004]; settings: rat spleen; ref Govaerts et al. [2004]; cited from earlier work
CB2R [5] = molecular target: T3, CB2R (Mus musculus, UniProt P47936); design: method as in Govaerts et al. [2004]; settings: mouse spleen; ref Govaerts et al. [2004]; cited from earlier work
T3 construct: from tissue; host or cells: mouse spleen cryosections
T3 sequence (P47936 whole entry): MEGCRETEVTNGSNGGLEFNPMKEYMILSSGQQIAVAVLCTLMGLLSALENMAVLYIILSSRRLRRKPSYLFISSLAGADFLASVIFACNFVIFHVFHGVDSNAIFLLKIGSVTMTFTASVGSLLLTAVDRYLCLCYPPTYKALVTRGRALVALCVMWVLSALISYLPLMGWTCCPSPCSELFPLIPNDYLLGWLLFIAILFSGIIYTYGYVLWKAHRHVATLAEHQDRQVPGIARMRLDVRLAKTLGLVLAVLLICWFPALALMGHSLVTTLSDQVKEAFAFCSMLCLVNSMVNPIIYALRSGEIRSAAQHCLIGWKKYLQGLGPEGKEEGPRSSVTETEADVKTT

[6] = Ex vivo radiometabolite analysis in CD-1 mice; settings: CD-1, mouse, in vivo, 30 min
Procedure: Female adult CD-1 mice (25–42 g body weight) were used for radiometabolite analysis of [^18F]JHU94620-d4 (n = 2, 33 and 34 MBq) and [^18F]JHU94620-d8 (n = 3, 26–33 MBq) at 30 min after intravenous tail vein injection of the radiotracer to allow for the comparison of radiometabolite analysis of [^18F]JHU94620 (Moldovan et al. [2016]). The mice were immobilized by short isoflurane narcosis for the injection of the radiotracer in a restrainer and awakened mice were kept in an isolated cage until euthanisation by cervical dislocation under isoflurane narcosis. Male Wistar rats (n = 12, 613–794 g) were used for radiometabolite analysis of [^18F]JHU94620-d8 at different time points (5, 15, 30 and 60 min p.i.) after intravenous tail vein injection of the radiotracer (37–74 MBq) for the correction of the input function in pharmacokinetic analysis. Rats were kept under isoflurane narcosis (gas mixture: 2.5% isoflurane and O2) on a warmed plate until euthanization by decapitation of deep narcotized animals. Plasma samples were obtained by centrifugation with 5500 g of blood samples for 2 min at 4 °C. Resected tissues brain and spleen were kept on ice and minced for 3 × 20 s with adding 0.5 to 1 mL of 0.9% NaCl using a Precellys lysing kit and Minilys homogenizer (Bertin Technologies SAS, Montigny-le-Bretonneux, France).
The samples were further processed for subsequent radio-chromatographic analyses. Two consecutive extractions were performed in duplicates for plasma and brain determinations. Plasma, brain and spleen samples were added to the four time the volume of an ice-cold MeOH/H2O mixture (9:1, v/v). The samples were vortexed for 3 min, incubated on ice for 5 min and centrifuged at 8,600 g for 5 min. Supernatants were collected and the precipitates were re-dissolved in 100 µL of extraction solvent and the extraction procedure was repeated. The activities of supernatants and precipitates were measured in a γ-counter (1480 WIZARD, Perkin Elmer), and the extraction efficiencies were calculated as the ratio of radioactivity in the supernatant to the radioactivity in the original sample (supernatant + precipitate). The supernatants from both extractions were combined, concentrated at 70 °C under argon stream up to a remaining volume of 100 µL, and subsequently analysed by analytical radio-HPLC (method A or B).

hCB1R = molecular target: hCB1R; design: method as in Moldovan et al. [2016]; settings: ref Moldovan et al. [2016]; cited from earlier work
hCB2R = molecular target: hCB2R; design: method as in Moldovan et al. [2016]; settings: ref Moldovan et al. [2016]; cited from earlier work
[7] = cited from earlier work
[8] = pH 7.4; cited from earlier work
[9] = ref McPartland et al. [2007], Kosar et al. [2024]
[10] = ref Caillé et al. [2017], Auvity et al. [2024]

In the case of `CCCCC/C=C\C/C=C\C/C=C\C/C=C\CCCC(=O)OC(CO)CO` [2-AG, 2-arachydonilglycerol], the Ki (CB2R [1]; [9]) is listed as 1190 nM.

In the case of `CCCCC/C=C\C/C=C\C/C=C\C/C=C\CCCC(=O)NCCO` [AEA, anandamide], the Ki (CB1R; [9]) is listed as 240 nM and the Ki (CB2R [1]; [9]) is listed as 440 nM.

For `Cc1c(Br)cn(Cc2ccc(F)cc2)c(=O)c1NC(=O)C1CCCCCC1` [CB2R PAM, reference compound], the “effect of co-incubation on the binding of [^18F]JHU94620-d8” value (human CB2R (hCB2R); 100 nM CB2R PAM, CHO(hCB2R) cell membranes) was “did not increase the binding”, the “competition with [^18F]JHU94620-d8 binding” value (human CB2R (hCB2R); CB2R PAM binding assay, Figure S9 as cited) was “weak competitive binding” and the “effect of co-incubation on the binding of [^18F]JHU94620-d8” value (CB2R [2]) was “did not increase the binding”.

With `COc1ccc2c(c1)c(CCN1CCOCC1)c(C)n2C(=O)c1cccc(Cl)c1Cl` [GW405833, reference compound] the “blocking of [^18F]JHU94620-d8 uptake into the spleen” value (CB2R [3]) was “significantly blocked”.

With `[2H]C([2H])(F)C([2H])([2H])C([2H])([2H])C([2H])([2H])n1c(C)c(C)s/c1=N\C(=O)C1C(C)(C)C1(C)C` [JHU94620-d8, (Z)-N-(3-(4-Fluorobutyl-1,1,2,2,3,3,4,4-d8)-4,5-dimethylthiazol-2(3H)-ylidene)-2,2,3,3-tetramethylcyclopropane-1-carboxamide] the Kd (hCB2R(D80N)) was 41.3 nM and the “blocking of [^18F]JHU94620-d8 uptake into the spleen” value (CB2R [3]) was “significantly blocked”.

In the case of `CCCCCCC(C)(C)c1ccc([C@@H]2C[C@H](O)CC[C@H]2CCCO)c(O)c1` [[^3H]CP55940], the Bmax (CB2R [4]) is given as 0.71 ± 0.02 pmol mg^−1 protein and the Bmax (CB2R [5]) is given as 0.31 ± 0.03 pmol mg^−1 protein.

In the case of `Cc1s/c(=N\C(=O)C2C(C)(C)C2(C)C)n(CCOCC[18F])c1C` [[^18F]FC0324, (Z)-N-(3-(2-(2-[^18F]Fluoroethoxy)ethyl)-4,5-dimethylthiazol-2(3H)-ylidene)-2,2,3,3-tetramethylcyclopropane-1-carboxamide], the Ki (CB1R; [10]) is given as 30 nM and the Ki (CB2R [1]; [10]) is given as 0.1 nM.

For `Cc1s/c(=N\C(=O)C2C(C)(C)C2(C)C)n(CCCC[18F])c1C` [[^18F]JHU94620], the “percentage printed at the radiotracer peak of the representative radio-HPLC chromatogram (Mice)” value [6] is given as 37%, the Ki (hCB1R) is given as 380 nM and the Ki (hCB2R) is given as 0.4 nM. For the same molecule, the “parent fraction in brain” value ([7]; CD-1 mouse brain, 30 min p.i., ref Moldovan et al. [2016]) was 0.36, the “parent fraction in plasma” value ([7]; mouse, in vivo) was 0.07 and the LogD7.4 [8] was 3.2.

For Δ^9-trans-tetrahydrocannabinol [THC], the Ki (CB1R; [9]) is listed as 25 nM and the Ki (CB2R [1]; [9]) is listed as 36 nM.
